We go through 16 molecules from patent US8772504B2, “Substituted benzoxazole, benzimidazole, oxazolopyridine and imidazopyridine derivatives as gamma secretase modulators” (Janssen Pharmaceuticals, Inc., priority 2009, dated 2014).

Assay [1] deals with Aβ42. The assay can be described thus: Screening for γ-secretase-modulating activity, Method 1: Aβ42 sandwich ELISA on SKNBE2 cell media. It counts as cell-based. Particulars: SKNBE2 cells carrying APP 695 wild type. The gist of the method: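 SKNBE2 cells expressing wild-type APP695 were treated with compound for 18 h in Ultraculture/1% glutamine. Secreted Aβ42 was quantified by sandwich ELISA (C-terminal capture, biotinylated 3D6, TMB, 450 nm), with WST-1 used as a toxicity check. IC50 was derived from 4-parameter fits of % inhibition or % of untreated control.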

Assay [2] deals with Aβ42. The assay can be described thus: Screening for γ-secretase-modulating activity, Method 2: Aβ42 Alphalisa on SKNBE2 cell supernatant. In kind it is cell-based. The note with it: Method 2, Table 3c, SKNBE2 cells carrying APP 695 wild type, overnight incubation. The essentials: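 SKNBE2 cells expressing wild-type APP695, plated at 10^4 cells/well with compound at several concentrations and incubated overnight at 37° C. Aβ42 (C-terminal capture, N-terminal biotinylated detection) and Aβtotal (N-terminal/4G8 pair) measured in supernatant by AlphaLISA. IC50 from 4-parameter fit of percent of compound-free control.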
On the technique in general: Alpha assays give light when donor and acceptor beads are brought close together.

Setting [3] is: Homo sapiens, Table 3a, 18 hours, XLfit, top/bottom fixed to 100 and 0, hill slope 1.
The mark [4] stands for this setting: Homo sapiens, Table 3b, non-linear regression of % of control, averaged IC50 values.
Where [5] appears, read: Table 3a, 18 hours, XLfit, top/bottom fixed to 100 and 0, hill slope 1.
[6] abbreviates: Table 3b, non-linear regression of % of control, averaged IC50 values.

With `COc1cc(Nc2cccc3c2nc(-c2ccc(F)cc2)n3C)ccc1-n1cnc(C)c1` [Compound 1], the half-inhibitory concentration (IC50) with Aβ42 [1] (setting [3]) was found to be 22 nM; with Aβ42 [1] (setting [4]) it was 21 nM; in the assay with Aβ42 [2] (Homo sapiens), 16 nM.

In the case of `COc1cc(Nc2cccc3c2nc(-c2ccc(F)cc2)n3C)ccc1-n1cnc(C)n1` [Compound 4], the 50% inhibitory concentration (IC50) in the assay on Aβ42 [1] (setting [3]) came to 23 nM; in the assay with Aβ42 [1] (setting [4]), 22 nM; in the assay with Aβ42 [2] (Homo sapiens), 27 nM.

For `COc1cc(Nc2nccc3c2nc(-c2ccc(F)cc2)n3C)ccc1-n1cnc(C)c1` [Compound 8], the IC50 in the assay on Aβ42 [1] (setting [3]) was found to be 22 nM; with Aβ42 [1] (setting [4]), 22 nM; in the assay with Aβ42 [2] (Homo sapiens), 17 nM.

Take `COc1nc(Nc2cccc3c2nc(-c2ccc(F)cc2)n3C)ccc1-n1cnc(C)c1` [Compound 15]: the IC50 in the assay on Aβ42 [1] (setting [3]) is 6 nM; with Aβ42 [1] (setting [4]), 8 nM; in the assay with Aβ42 [2] (Homo sapiens), 6 nM.

For the molecule `CCn1c(CC2CC2)nc2c(Nc3ccc(-n4cnc(C)c4)c(OC)c3)cccc21` [Compound 36], the concentration for half-maximal inhibition (IC50) in the assay with Aβ42 [1] (setting [5]) turned out to be 31 nM; with Aβ42 [1] (setting [6]), 28 nM; with Aβ42 [2], 78 nM.

As to `COc1cc(Nc2cccc3c2nc(Oc2ccccc2)n3C)ccc1-n1cnc(C)c1` [Compound 61], the IC50 came to 63 nM in the assay with Aβ42 [1] (setting [5]), 59 nM in the assay on Aβ42 [1] (setting [6]) and 141 nM in the assay with Aβ42 [2].

For `Cc1cn(-c2ccc(Nc3cccc4c3nc(-c3ccc(F)cc3)n4C)cc2F)cn1` [Compound 67], the figures for the IC50 in the assay with Aβ42 [1] (setting [5]), in the assay with Aβ42 [1] (setting [6]) and in the assay with Aβ42 [2] were 12 nM, 8 nM and 36 nM, respectively.

As for `Cc1ncn(-c2ccc(Nc3cccc4c3nc(-c3ccc(F)cc3)n4C(C)C)cc2)n1.Cl.Cl` [Compound 73], the IC50 in the assay on Aβ42 [1] (setting [5]) was 96 nM; in the assay on Aβ42 [1] (setting [6]), 89 nM; in the assay on Aβ42 [2], 288 nM.

Regarding `COc1cc(Nc2cccc3c2nc(-c2ccc(F)cc2)n3C(C)C)ccc1-n1cnc(C)n1.Cl.Cl` [Compound 75], the IC50 in the assay on Aβ42 [1] (setting [5]) was 19 nM; in the assay on Aβ42 [1] (setting [6]) it was 19 nM; with Aβ42 [2], 45 nM.

For `Cc1ncn(-c2ccc(Nc3cccc4c3nc(-c3ccc(F)cc3)n4C(C)C)cn2)n1` [Compound 76], the half-maximal inhibitory concentration (IC50) with Aβ42 [1] (setting [5]) came to 48 nM; in the assay with Aβ42 [1] (setting [6]), 46 nM; in the assay with Aβ42 [2], 72 nM.

Consider `COc1cc(Nc2nccc3c2nc(-c2ccc(F)cc2)n3C)ccc1-n1cnc(C)n1` [Compound 92], for which the IC50 in the assay on Aβ42 [1] (setting [5]) was 129 nM; in the assay with Aβ42 [1] (setting [6]), 129 nM; with Aβ42 [2], 178 nM.

Turning to `COc1cc(Nc2cc(C(C)C)nc3c2nc(-c2ccc(F)cc2)n3C)ccc1-n1cnc(C)n1` [Compound 110], the IC50 with Aβ42 [1] (setting [3]) amounted to 4 nM; with Aβ42 [1] (setting [4]), 18 nM; in the assay with Aβ42 [2] (Homo sapiens) it was 20 nM.

With `COc1cc(-c2nc3c(Nc4ccc(-n5cnc(C)n5)c(OC)c4)nccc3n2C)ccc1Cl` [Compound 114], the IC50 in the assay with Aβ42 [1] (setting [3]) is 10 nM; in the assay on Aβ42 [1] (setting [4]) it was 54 nM; in the assay on Aβ42 [2] (Homo sapiens), 21 nM.

`COc1nc(Nc2cc(F)cc3c2nc(-c2ccc(F)cc2)n3C)ccc1-n1cnc(C)c1` [Compound 115]: the half-maximal inhibitory concentration (IC50) in the assay with Aβ42 [1] (setting [5]) and in the assay with Aβ42 [2] was 2 nM in each case.

With `COc1cc(Nc2nccc3c2nc(-c2ccccc2C(F)(F)F)n3C)ccc1-n1cnc(C)n1` [Compound 130], the IC50 in the assay with Aβ42 [1] (setting [6]) is 69 nM; in the assay on Aβ42 [2], 129 nM.

Consider `COc1cc(Nc2nc(C)cc3c2nc(-c2ccc(F)cc2)n3C)ccc1-n1cnc(C)n1` [Compound 164], for which the results for the IC50 in the assay with Aβ42 [1] (setting [6]) and in the assay on Aβ42 [2] were 32 nM and 46 nM, respectively.

Broadly, the IC50 is the point on the concentration scale where inhibition reaches its midpoint. Read a low IC50 as greater potency.
